This is an account of results in patent publication US8664257B2, “Oxygen-substituted 3-heteroaroylamino-propionic acid derivatives and their use as pharmaceuticals” (Sanofi, priority 2010, dated 2014).

Molecules are shown by their SMILES.

One experiment concerns the target T1, Recombinant human cathepsin A (Homo sapiens, UniProt P10619).
T1 construct: Recombinant human cathepsin A (residues 29-480, with a C-terminal 10-His tag); 10-His (C); purchased R&D Systems 1049-SE
T1 sequence (P10619 29-312 limits assumed): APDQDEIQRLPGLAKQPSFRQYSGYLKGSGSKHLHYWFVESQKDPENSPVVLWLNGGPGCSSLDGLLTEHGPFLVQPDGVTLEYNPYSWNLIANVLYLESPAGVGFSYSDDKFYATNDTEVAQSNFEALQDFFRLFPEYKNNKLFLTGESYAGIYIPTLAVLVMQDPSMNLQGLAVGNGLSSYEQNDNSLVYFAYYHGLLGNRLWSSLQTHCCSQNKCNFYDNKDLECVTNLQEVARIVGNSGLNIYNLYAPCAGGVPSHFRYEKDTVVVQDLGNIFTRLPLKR
T1 sequence (P10619 327-480 limits assumed): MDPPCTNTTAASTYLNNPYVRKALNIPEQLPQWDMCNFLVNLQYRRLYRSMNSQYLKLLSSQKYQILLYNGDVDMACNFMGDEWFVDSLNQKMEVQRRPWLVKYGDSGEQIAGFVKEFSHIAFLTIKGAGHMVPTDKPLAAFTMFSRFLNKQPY
Nature of the experiment: Cathepsin A inhibitory activity. The note with it: pharmacological test "Cathepsin A inhibitory activity"; IC50 given as class A/B/C; read-out: Activity (2): Cathepsin A inhibitory activity, IC50 class. The class given is biochemical. Summed up:
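Human cathepsin A (res. 29-480, C-His10) pre-activated with cathepsin L (MES pH 6.0, DTT, 15 min, 37 °C; quenched with 10 μM E-64). Enzyme (833 ng/ml) preincubated 15 min RT with compound in MES pH 5.5/DTT, then 2 μM Bodipy FL-bradykinin for 15 min RT. Capillary electrophoresis product/substrate peak areas; IC50 from % inhibition.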
The IC50 is the concentration needed to halve the response being measured. As for `COc1cccc([C@H](CC(=O)O)NC(=O)c2cc(O)n(-c3ccc(F)cc3F)n2)c1` [Example 182], the IC50 was 100 to 1000 nM.

Turning to `O=C(O)C[C@H](NC(=O)c1cc(O)n(-c2ccc(F)cc2F)n1)c1cccc(F)c1` [Example 183], the IC50 is 100 to 1000 nM. Take `O=C(O)C[C@H](NC(=O)c1cc(O)n(-c2ccccc2F)n1)c1cccc(C(F)(F)F)c1` [Example 241]: the IC50 is 100 to 1000 nM.

Still in this experiment, the particulars now being: read-out: Activity (2): Cathepsin A inhibitory activity (IC50 class).
For `Cc1ccccc1[C@H](CC(=O)O)NC(=O)c1cc(OC(C)C)n(-c2ccccc2F)n1` [Example 630], the half-maximal inhibitory concentration (IC50) was less than 100 nM. `O=C(O)C[C@H](NC(=O)c1cc(OCC2CC2)n(-c2ccccc2F)n1)c1ccccc1Cl` [Example 696]: the IC50 is less than 100 nM. Same read-out and setting: the result for `COc1cc(C(=O)N[C@@H](CC(=O)O)c2ccc(C(F)(F)F)cc2)nn1-c1ccccc1F` [Example 674] reads less than 100 nM; that for `Cc1ccccc1[C@H](CC(=O)O)NC(=O)c1cc(OCC(=O)N(C)C)n(-c2ccccc2F)n1` [Example 615], less than 100 nM; that for `Cc1cccc(C(CC(=O)O)NC(=O)c2cc(OCC3CC3)n(-c3ccccc3F)n2)c1C` (centres unmarked) [Example 703], less than 100 nM. Same read-out and setting: the result for `Cc1ccc([C@H](CC(=O)O)NC(=O)c2cc(OCC(C)(O)c3ccccc3)n(-c3ccccc3F)n2)cc1` (some centres unmarked) [Example 636] reads less than 100 nM; that for `Cc1ccccc1[C@H](CC(=O)O)NC(=O)c1cc(OCC(O)C(C)(C)C)n(-c2ccccc2F)n1` (stereo partly drawn) [Example 744, (S)-3-{[1-(2-Fluoro-phenyl)-5-(2-hydroxy-3,3-dimethyl-butoxy)-1H-pyrazole-3-carbonyl]-amino}-3-o-tolyl-propionic acid], less than 100 nM. Turning to `CC(C)[C@@](C)(O)COc1cc(C(=O)N[C@@H](CC(=O)O)c2ccc(F)cc2)nn1-c1ccccc1F` [Example 768, (S)-3-(4-Fluoro-phenyl)-3-{[1-(2-fluoro-phenyl)-5-((R)-2-hydroxy-2,3-dimethyl-butoxy)-1H-pyrazole-3-carbonyl]-amino}-propionic acid], the IC50 was less than 100 nM. For `O=C(O)CC(NC(=O)c1cc(O)n(-c2ccccc2)n1)c1ccc(-c2ccc(C(F)(F)F)cc2)cc1` (centres unmarked) [Example 579], the concentration for half-maximal inhibition (IC50) lay in the range of 1000 to 30000 nM. On the same count and under the same terms, the result for `CCOc1cc(C(=O)N[C@@H](CC(=O)O)c2ccccc2)nn1-c1ccccc1Cl` [Example 726] reads 100 to 1000 nM. On to `Cc1ccc([C@H](CC(=O)O)NC(=O)c2cc(OCC(=O)C(C)(C)C)n(-c3ccccc3F)n2)cc1` [Example 791, (S)-3-{[5-(3,3-Dimethyl-2-oxo-butoxy)-1-(2-fluoro-phenyl)-1H-pyrazole-3-carbonyl]-amino}-3-p-tolyl-propionic acid], for which the IC50 was less than 100 nM. On the same count and under the same terms, the result for `Cc1ccccc1[C@H](CC(=O)O)NC(=O)c1cc(O)n(C2CCCCC2)n1` [Example 573] reads less than 100 nM.

Staying with this experiment, now noted: read-out: Activity (2): Cathepsin A inhibitory activity, IC50 class.
As to `COc1ccc(C(CC(=O)O)NC(=O)c2cc(O)n(-c3ccccc3Cl)n2)c(F)c1` (centres unmarked) [Example 132], the IC50 is 100 to 1000 nM. On the same count and under the same terms, the result for `COc1ccccc1[C@H](CC(=O)O)NC(=O)c1cc(O)n(-c2ccc(Cl)cc2)n1` [Example 274] reads 1000 to 30000 nM; that for `CC(C)C(C)(O)COc1cc(C(=O)N[C@@H](CC(=O)O)c2cccc(C#N)c2)nn1-c1ccccc1F` (stereo partly drawn) [Example 807, (S)-3-(3-Cyano-phenyl)-3-{[1-(2-fluoro-phenyl)-5-(2-hydroxy-2,3-dimethyl-butoxy)-1H-pyrazole-3-carbonyl]-amino}-propionic acid], less than 100 nM; that for `CC(C)[C@](C)(O)COc1cc(C(=O)N[C@@H](CC(=O)O)c2cccc(Cl)c2)nn1-c1ccccc1F` [Example 877, (S)-3-(3-Chloro-phenyl)-3-{[1-(2-fluoro-phenyl)-5-((S)-2-hydroxy-2,3-dimethyl-butoxy)-1H-pyrazole-3-carbonyl]-amino}-propionic acid], 100 to 1000 nM. Consider `O=C(O)CC(NC(=O)c1cc(O)n(-c2ccccc2)n1)c1ccc(Cl)cc1` (centres unmarked) [Example 58], for which the IC50 was in the range of 100 to 1000 nM. The same measure, in the same setting: for `CC(C)(C)[C@@H](O)COc1cc(C(=O)N[C@@H](CC(=O)O)c2ccc(Cl)cc2)nn1-c1ccccc1F` [Example 828, (S)-3-(4-Chloro-phenyl)-3-{[1-(2-fluoro-phenyl)-5-((R)-2-hydroxy-3,3-dimethyl-butoxy)-1H-pyrazole-3-carbonyl]-amino}-propionic acid] the value was 100 to 1000 nM; for `O=C(O)CC(NC(=O)c1cc(O)n(-c2ccccc2)n1)C1CCCCC1` (centres unmarked) [Example 18], 100 to 1000 nM; for `CC(C)(C)[C@H](O)COc1cc(C(=O)N[C@@H](CC(=O)O)c2ccc(Cl)cc2)nn1-c1ccccc1F` [Example 794, (S)-3-(4-Chloro-phenyl)-3-{[1-(2-fluoro-phenyl)-5-((S)-2-hydroxy-3,3-dimethyl-butoxy)-1H-pyrazole-3-carbonyl]-amino}-propionic acid], less than 100 nM. The same measure, in the same setting: for `O=C(O)CC(NC(=O)c1cc(O)n(-c2ccc(F)cc2F)n1)c1ccc(-c2cccc(F)c2)cc1` (centres unmarked) [Example 384] the value was 100 to 1000 nM; for `O=C(O)CC(NC(=O)c1cc(O)n(-c2ccccc2F)n1)c1ccc(-c2ccc(F)cc2)cc1` (centres unmarked) [Example 126], less than 100 nM.

For the compound `N#Cc1cccc([C@H](CC(=O)O)NC(=O)c2cc(O)n(-c3ccc(F)cc3)n2)c1` [Example 340], the half-inhibitory concentration (IC50) is 1000 to 30000 nM. The same measure, in the same setting: for `Cc1ccc(C(CC(=O)O)NC(=O)c2cc(O)n(-c3cccc(F)c3)n2)c(C)c1` (centres unmarked) [Example 325] the value was 100 to 1000 nM. On the same count and under the same terms, for `CC(C)(C)c1ccc(C(CC(=O)O)NC(=O)c2cc(O)n(-c3ccccc3)n2)cc1` (centres unmarked) [Example 66] the value was 1000 to 30000 nM.

As for `COc1ccc(-n2nc(C(=O)N[C@@H](CC(=O)O)c3ccccc3C)cc2O)cc1` [Example 87], the IC50 lay in the range of 100 to 1000 nM. On the same count and under the same terms, for `CC(C)[C@](C)(O)COc1cc(C(=O)N[C@H](CC(=O)O)Cc2ccc(C#N)cc2)nn1-c1ccccc1F` [Example 834, (S)-4-(4-Cyano-phenyl)-3-{[1-(2-fluoro-phenyl)-5-((S)-2-hydroxy-2,3-dimethyl-butoxy)-1H-pyrazole-3-carbonyl]-amino}-butyric acid] the value was 1000 to 30000 nM; for `Cc1ccc(C)c(-n2nc(C(=O)NC(CC(=O)O)C3CC3)cc2O)c1` (centres unmarked) [Example 36], 1000 to 30000 nM; for `Cc1ccc([C@H](CC(=O)O)NC(=O)c2cc(O)n(-c3ccccc3Cl)n2)cc1` [Example 135, (S)-3-{[1-(2-Chloro-phenyl)-5-hydroxy-1H-pyrazole-3-carbonyl]-amino}-3-p-tolyl-propionic acid], 100 to 1000 nM. Turning to `O=C(O)CC(NC(=O)c1cc(O)n(-c2ccccc2)n1)c1ccc(OC(F)(F)F)cc1` (centres unmarked) [Example 12], the IC50 lay within 100 to 1000 nM.

Still in this experiment, the particulars now being: recombinant human cathepsin A 833 ng/ml, Bodipy FL-labeled bradykinin 2 μM, pH 5.5; read-out: CATH-A IC50.
Regarding `CC(C)[C@@](C)(O)COc1cc(C(=O)N[C@@H](CC(=O)O)c2ccc(F)cc2)nn1-c1ccccc1F` [Example 768, (S)-3-(4-Fluoro-phenyl)-3-{[1-(2-fluoro-phenyl)-5-((R)-2-hydroxy-2,3-dimethyl-butoxy)-1H-pyrazole-3-carbonyl]-amino}-propionic acid], the IC50 turned out to be 1.15 nM. On the same count and under the same terms, the result for `Cc1ccc([C@H](CC(=O)O)NC(=O)c2cc(O)n(-c3ccccc3Cl)n2)cc1` [Example 135, (S)-3-{[1-(2-Chloro-phenyl)-5-hydroxy-1H-pyrazole-3-carbonyl]-amino}-3-p-tolyl-propionic acid] reads 211 nM.

The experiment is the same for the next values; noted with them: recombinant human cathepsin A; read-out: Activity (2): Cathepsin A inhibitory activity, IC50 class.
Turning to `O=C(O)C[C@H](NC(=O)c1cc(O)n(-c2cccc(F)c2)n1)c1c(F)cccc1F` [Example 434], the IC50 lay within 100 to 1000 nM.

In the case of `COc1cc(C(=O)N[C@@H](CC(=O)NC2CC2)c2ccccc2C)nn1-c1ccccc1F` [Example 933, 1-(2-Fluoro-phenyl)-5-methoxy-1H-pyrazole-3-carboxylic acid ((S)-2-cyclopropylcarbamoyl-1-o-tolyl-ethyl)-amide], the IC50 was less than 100 nM. Still for that read-out and setting: for `COc1cccc([C@H](CC(=O)O)NC(=O)c2cc(O)n(-c3cccc(F)c3)n2)c1OC` [Example 431] the value was 100 to 1000 nM.
